The target of the test is GTPase NRas [G12D,C118S] (Homo sapiens, UniProt P01111, C118S/G12D). Description: NRas G12D Surface Plasmon Resonance (SPR) Binding Assay. How it is done:
The assay was run at 25° C. with a data collection rate of 10 Hz. All samples were flowed over both a reference surface and an active surface. Samples were injected for 30 s, with a dissociation time length of 120 s, at a flow rate of 100 μL/min and followed by an extra wash with 50% DMSO and a carry-over control injected at 40 μL/min for 30 s. Ten startup cycles were performed at the beginning of the assay. Solvent correction samples were injected once in the middle of the assay, and once at the end. A control sample of 10 μM control compound was injected between two negative control injections (1.0× running buffer containing 3% DMSO) every thirty cycles, to periodically assess NRAS surface stability. Assay was allowed to run for approximately 20-24 hours due to loss of activity of the protein surface over time. Data was analyzed using the Biacore™ S200 Evaluation Software, and all data was fit using a 1:1 kinetic binding model or steady-state fitting, as appropriate.

As a reminder, the Kd is the free concentration of one partner at which half of the binding sites on the other are occupied at equilibrium, for simple one-to-one binding.

Chain of GTPase NRas [G12D,C118S] (P01111 whole entry G12D/C118S, looked up): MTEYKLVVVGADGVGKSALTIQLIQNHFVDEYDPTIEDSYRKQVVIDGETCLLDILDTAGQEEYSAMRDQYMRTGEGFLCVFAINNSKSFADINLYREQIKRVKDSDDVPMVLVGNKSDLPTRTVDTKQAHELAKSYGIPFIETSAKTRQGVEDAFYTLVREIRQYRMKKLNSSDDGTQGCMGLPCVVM

Turning to `C#Cc1c(F)ccc2cc(O)cc(-c3nc(C(C)=O)c4c([C@H]5[C@@H]6CNC[C@@H]65)nn(C5CC5)c4c3F)c12` [US20260022118, Example 84], the dissociation constant (Kd) is 119 nM.

For the origin of these results see BindingDB's records for patent US20260022118 (University of Texas System, 2026).
